The record followed here is patent publication US7812032B2 (Abbott Laboratories, priority 2006, dated 2010).

Data set [1] can be described thus: pharmacokinetics after single intravenous dose in cynomolgus monkey. Type of data set: in vivo. To be noted: in vivo, iv, 2.5 mg/kg.
Data set [2] deals with human mixed lymphocyte reaction (MLR). As to the kind of experiment: human mixed lymphocyte reaction (MLR) assay. It counts as cell-based. The note with it: read-out: Human MLR IC50 ± S.E.M.

Turning to “40-epi-N-[2′-pyridone]-rapamycin [Example 2-pyridone, reference compound]”, the t1/2 in data set [1] amounted to 2.8 h. Also, the IC50 in data set [2] turned out to be 12.4 ± 5.3 nM.

For the molecule `COC1CC2CCC(C)C(O)(O2)C(=O)C(=O)N2CCCCC2C(=O)OC(C(C)CC2CCC(n3ccc(=O)cc3)C(OC)C2)CC(=O)C(C)C=C(C)C(O)C(OC)C(=O)C(C)CC(C)C=CC=CC=C1C` (stereo not drawn) [Example 4-pyridone, 40-epi-N-[4′-pyridone]-rapamycin, reference compound], the t1/2 in data set [1] turned out to be 13.3 h. Besides, the IC50 in data set [2] was 0.43 ± 0.2 nM.

Usually IC50 stands for the concentration that inhibits the measured activity by half.
